# Test results from US20250275540A1, “USE OF PROTOPORPHYRINOGEN OXIDASE” (BEIJING DABEINONG BIOTECHNOLOGY CO., LTD., priority 2022, published 2025).
# Test system: transgenic maize plants
# Test: Detection of the herbicide tolerance of the transgenic maize plants
# Format: in vivo
# Conditions: for The grade of pesticide damage/plant: 0 / The grade of pesticide damage/plant: 1 / The grade of pesticide damage/plant: 2 / The grade of pesticide damage/plant: 3: 7 DAT
# Text: The transformed Arabidopsis thaliana T1 plants were initially selected using glufosinate herbicide. The Arabidopsis thaliana T1 plants (PPOA-01) into which the PPOA-01 nucleotide sequence was introduced, the Arabidopsis thaliana T1 plants (PPOB-01) into which the PPOB-01 nucleotide sequence was introduced, the Arabidopsis thaliana T1 plants (PPOC-01) into which the PPOC-01 nucleotide sequence was introduced, the Arabidopsis thaliana T1 plants (PPOD-01) into which the PPOD-01 nucleotide sequence was introduced, the Arabidopsis thaliana T1 plants (PPOE-01) into which the PPOE-01 nucleotide sequence was introduced, the Arabidopsis thaliana T1 plants (PPOF-01) into which the PPOF-01 nucleotide sequence was introduced, the Arabidopsis thaliana T1 plants (PPO-AP-01) into which the PPO-AP-01 nucleotide sequence was introduced, and the Arabidopsis thaliana T1 plants (control vector) into which the control vector was introduced, the wild-type Arabidopsis thaliana plants (CK) (with 24 plants being included in each genotype) (18 days after sowing) were sprayed with saflufenacil at three concentrations (25 g ai/ha (one-fold field concentration, 1×), 100 g ai/ha (four-fold field concentration, 4×), and 0 g ai/ha (water, 0×)), oxyfluorfen at three concentrations (180 g ai/ha (one-fold field concentration, 1×), 720 g ai/ha (four-fold field concentration, 4×), and 0 g ai/ha (water, 0×)), and flumioxazin at three concentrations (60 g ai/ha (one-fold field concentration, 1×), 240 g ai/ha (four-fold field concentration, 4×), and 0 g ai/ha (water, 0×) to determine the tolerance of Arabidopsis thaliana to the herbicides. After 7 days of spraying (7 DAT), the damage level of each plant caused by the herbicide was evaluated according to the average of the damage levels (%) of plants (the average of the damage levels (%) of plants=the injured leaf area/the total leaf area×100%), i.e., the grade of pesticide damage: grade 0 means that the growth status of plants is essentially consistent with those sprayed with the blank solvent (water); grade 1 means that the average of the damage levels of plants is less than 10%; grade 2 means that the average of the damage levels of plants is greater than 10%; and grade 3 means that the average of the damage levels of plants is 100%. The plants having a growth status falling within grades 0 and 1 are classified as highly resistant plants; those having a growth status falling within grade 2 are classified as poorly resistant plants; and those having a growth status falling within grade 3 are classified as non-resistant plants.
# The maize plants into which the PPOA-02 nucleotide sequence was introduced, the maize plants into which the PPOB-02 nucleotide sequence was introduced, the maize plants into which the PPOC-02 nucleotide sequence was introduced, the maize plants into which the PPOD-02 nucleotide sequence was introduced, the maize plants into which the PPOE-02 nucleotide sequence was introduced, the maize plants into which the PPOF-02 nucleotide sequence was introduced, the maize plants into which the PPO-AP-02 nucleotide sequence was introduced, the maize plants (control vector) into which the control vector was introduced, and the wild-type maize plants (CK) (with 16 plants being included in each genotype) (18 days after sowing) were taken and sprayed with saflufenacil at three concentrations (50 g ai/ha (two-fold field concentration, 2×), 100 g ai/ha (four-fold field concentration, 4×), and 0 g ai/ha (water, 0×)), oxyfluorfen at three concentrations (360 g ai/ha (two-fold field concentration, 2×), 720 g ai/ha (four-fold field concentration, 4×), and 0 g ai/ha (water, 0×), and flumioxazin at three concentrations (120 g ai/ha (two-fold field concentration, 2×), 240 g ai/ha (four-fold field concentration, 4×), and 0 g ai/ha (water, 0×) to determine the tolerance of maize plants to the herbicides. […]
# [1] = genotype Control vector, 50 g ai/ha
# [2] = genotype Control vector, 100 g ai/ha
# [3] = genotype PPO-AP-02, 100 g ai/ha
smiles,measurement,setting,value
"CC(C)N(C)S(=O)(=O)NC(=O)c1cc(-n2c(=O)cc(C(F)(F)F)n(C)c2=O)c(F)cc1Cl [saflufenacil, N′-[2-chloro-4-fluoro-5-(3-methyl-2,6-dioxo-4-(trifluoromethyl)-3,6-dihydro-1 (2H)-pyrimidine)benzoyl]-N-isopropyl-N-methylsulfamide]",The grade of pesticide damage/plant: 0,"genotype CK, 50 g ai/ha",0 plant
same,The grade of pesticide damage/plant: 1,"genotype CK, 50 g ai/ha",0 plant
same,The grade of pesticide damage/plant: 2,"genotype CK, 50 g ai/ha",0 plant
same,The grade of pesticide damage/plant: 3,"genotype CK, 50 g ai/ha",16 plant
same,The grade of pesticide damage/plant: 0,"genotype CK, 100 g ai/ha",0 plant
same,The grade of pesticide damage/plant: 1,"genotype CK, 100 g ai/ha",0 plant
same,The grade of pesticide damage/plant: 2,"genotype CK, 100 g ai/ha",0 plant
same,The grade of pesticide damage/plant: 3,"genotype CK, 100 g ai/ha",16 plant
same,The grade of pesticide damage/plant: 0,[1],0 plant
same,The grade of pesticide damage/plant: 1,[1],0 plant
same,The grade of pesticide damage/plant: 2,[1],0 plant
same,The grade of pesticide damage/plant: 3,[1],16 plant
same,The grade of pesticide damage/plant: 0,[2],0 plant
same,The grade of pesticide damage/plant: 1,[2],0 plant
same,The grade of pesticide damage/plant: 2,[2],0 plant
same,The grade of pesticide damage/plant: 3,[2],16 plant
same,The grade of pesticide damage/plant: 0,"genotype PPO-AP-02, 50 g ai/ha",0 plant
same,The grade of pesticide damage/plant: 1,"genotype PPO-AP-02, 50 g ai/ha",0 plant
same,The grade of pesticide damage/plant: 2,"genotype PPO-AP-02, 50 g ai/ha",7 plant
same,The grade of pesticide damage/plant: 3,"genotype PPO-AP-02, 50 g ai/ha",9 plant
same,The grade of pesticide damage/plant: 0,[3],0 plant
same,The grade of pesticide damage/plant: 1,[3],0 plant
same,The grade of pesticide damage/plant: 2,[3],1 plant
same,The grade of pesticide damage/plant: 3,[3],15 plant
same,tolerance to the herbicide (in words),"genotype PPO-AP-02, four-fold field concentration",basically no tolerance
same,share of the plants that exhibited no tolerance,"genotype PPO-AP-02, two-fold field concentration",about 56%
same,The grade of pesticide damage/plant: 0,"genotype PPOA-02, 50 g ai/ha",16 plant
same,The grade of pesticide damage/plant: 1,"genotype PPOA-02, 50 g ai/ha",0 plant
same,The grade of pesticide damage/plant: 2,"genotype PPOA-02, 50 g ai/ha",0 plant
same,The grade of pesticide damage/plant: 3,"genotype PPOA-02, 50 g ai/ha",0 plant
same,The grade of pesticide damage/plant: 0,"genotype PPOA-02, 100 g ai/ha",16 plant
same,The grade of pesticide damage/plant: 1,"genotype PPOA-02, 100 g ai/ha",0 plant
same,The grade of pesticide damage/plant: 2,"genotype PPOA-02, 100 g ai/ha",0 plant
same,The grade of pesticide damage/plant: 3,"genotype PPOA-02, 100 g ai/ha",0 plant
same,The grade of pesticide damage/plant: 0,"genotype PPOB-02, 50 g ai/ha",16 plant
same,The grade of pesticide damage/plant: 1,"genotype PPOB-02, 50 g ai/ha",0 plant
same,The grade of pesticide damage/plant: 2,"genotype PPOB-02, 50 g ai/ha",0 plant
same,The grade of pesticide damage/plant: 3,"genotype PPOB-02, 50 g ai/ha",0 plant
same,The grade of pesticide damage/plant: 0,"genotype PPOB-02, 100 g ai/ha",16 plant
same,The grade of pesticide damage/plant: 1,"genotype PPOB-02, 100 g ai/ha",0 plant
same,The grade of pesticide damage/plant: 2,"genotype PPOB-02, 100 g ai/ha",0 plant
same,The grade of pesticide damage/plant: 3,"genotype PPOB-02, 100 g ai/ha",0 plant
same,The grade of pesticide damage/plant: 0,"genotype PPOC-02, 50 g ai/ha",16 plant
same,The grade of pesticide damage/plant: 1,"genotype PPOC-02, 50 g ai/ha",0 plant
same,The grade of pesticide damage/plant: 2,"genotype PPOC-02, 50 g ai/ha",0 plant
same,The grade of pesticide damage/plant: 3,"genotype PPOC-02, 50 g ai/ha",0 plant
same,The grade of pesticide damage/plant: 0,"genotype PPOC-02, 100 g ai/ha",16 plant
same,The grade of pesticide damage/plant: 1,"genotype PPOC-02, 100 g ai/ha",0 plant
same,The grade of pesticide damage/plant: 2,"genotype PPOC-02, 100 g ai/ha",0 plant
same,The grade of pesticide damage/plant: 3,"genotype PPOC-02, 100 g ai/ha",0 plant
same,The grade of pesticide damage/plant: 0,"genotype PPOD-02, 50 g ai/ha",16 plant
same,The grade of pesticide damage/plant: 1,"genotype PPOD-02, 50 g ai/ha",0 plant
same,The grade of pesticide damage/plant: 2,"genotype PPOD-02, 50 g ai/ha",0 plant
same,The grade of pesticide damage/plant: 3,"genotype PPOD-02, 50 g ai/ha",0 plant
same,The grade of pesticide damage/plant: 0,"genotype PPOD-02, 100 g ai/ha",16 plant
same,The grade of pesticide damage/plant: 1,"genotype PPOD-02, 100 g ai/ha",0 plant
same,The grade of pesticide damage/plant: 2,"genotype PPOD-02, 100 g ai/ha",0 plant
same,The grade of pesticide damage/plant: 3,"genotype PPOD-02, 100 g ai/ha",0 plant
same,The grade of pesticide damage/plant: 0,"genotype PPOE-02, 50 g ai/ha",16 plant
same,The grade of pesticide damage/plant: 1,"genotype PPOE-02, 50 g ai/ha",0 plant
same,The grade of pesticide damage/plant: 2,"genotype PPOE-02, 50 g ai/ha",0 plant
same,The grade of pesticide damage/plant: 3,"genotype PPOE-02, 50 g ai/ha",0 plant
same,The grade of pesticide damage/plant: 0,"genotype PPOE-02, 100 g ai/ha",16 plant
same,The grade of pesticide damage/plant: 1,"genotype PPOE-02, 100 g ai/ha",0 plant
same,The grade of pesticide damage/plant: 2,"genotype PPOE-02, 100 g ai/ha",0 plant
same,The grade of pesticide damage/plant: 3,"genotype PPOE-02, 100 g ai/ha",0 plant
same,The grade of pesticide damage/plant: 0,"genotype PPOF-02, 50 g ai/ha",16 plant
same,The grade of pesticide damage/plant: 1,"genotype PPOF-02, 50 g ai/ha",0 plant
same,The grade of pesticide damage/plant: 2,"genotype PPOF-02, 50 g ai/ha",0 plant
same,The grade of pesticide damage/plant: 3,"genotype PPOF-02, 50 g ai/ha",0 plant
same,The grade of pesticide damage/plant: 0,"genotype PPOF-02, 100 g ai/ha",10 plant
same,The grade of pesticide damage/plant: 1,"genotype PPOF-02, 100 g ai/ha",6 plant
same,The grade of pesticide damage/plant: 2,"genotype PPOF-02, 100 g ai/ha",0 plant
same,The grade of pesticide damage/plant: 3,"genotype PPOF-02, 100 g ai/ha",0 plant
same,tolerance to the herbicide (in words),"genotypes PPOA-02 to PPOF-02, four-fold field concentration",high-resistant tolerance
same,tolerance to the herbicide (in words),"genotypes PPOA-02 to PPOF-02, two-fold field concentration",high-resistant tolerance
